The results in this text go back to US12653830B2, “Substituted imidazoquinoxaline compounds and uses thereof” (Impact Therapeutics (Shanghai), Inc, priority 2019, dated 2026).

In one assay the target is T1, ATM kinase (Homo sapiens, UniProt Q13315).
T1 construct: purchased Eurofins 14-933
Nature of the assay: In vitro ATM kinase assay (Cisbio HTRF, p53 substrate). The class given is biochemical. To be noted: 30 μM ATP; for inhibition at 0.0001 µM: Conc. 0.1 nM; for inhibition at 0.0001 µM / inhibition at 0.001 µM / inhibition at 0.01 µM: read-out: Inh % (inhibitory effect on ATM kinase activity); for inhibition at 0.001 µM: Conc. 1 nM; for inhibition at 0.01 µM: Conc. 10 nM. As to the method: Determination of the Inhibitory Effect In Vitro of the Compound of Example 2 and its Analogues on ATM Using In Vitro ATM Kinase Assay
ATM enzymatic activity was measured using Cisbio's HTRF reagent in a 384-well plate (Greiner, #784075). […] The mixtures were centrifuged at 1000 rpm for 1 minute, and reacted in dark for 30 minutes at room temperature. Then, 5 μL of EDTA termination solution (250 mm) was added to terminate the reaction. After 5 μL of detection mixture (Anti-phospho-p53 (ser15)-K (Cisbio, #61P08KAE, 0.084 ng/μL) and Anti-GST-d2 (Cisbio, #61GSTDLA, 5.00 ng/μL)) was finally added to each well, the mixtures were cultured at room temperature over night, and the fluorescence values at 665 nm and 615 nm were measured on Envision 2104. The final concentration of each reagent of the experiment was as follows: 12.5 mM HEPES (pH8.0), 0.5% glycerol, 0.005% Brij-35, 0.625 mM DTT, 0.0125% BSA, 15 nM p53, 0.25 ng/μL ATM, 30 μM ATP, 2.5 mM Mg(AcO)2, 2.5 mM MnCl2, 62.5 mM EDTA, 0.021 ng/μL Anti-phospho-p53, 1.25 ng/μL Anti-GST-d2.
Relative fluorescence ratio was calculated: Ratio665 nm/615 nm−Ratiobackground, and inhibition rate %=(1−(relative fluorescence ratio of test compound well−relative fluorescence ratio of positive control well)/(relative fluorescence ratio of negative control well−relative fluorescence ratio of positive control well))×100 was calculated. Data were analyzed using GraphPad Prism6.0 and fitted using the curve equation: Y=Bottom+(Top−Bottom)/(1+10^((Log IC50−X)*HillSlope)), and IC50 values were calculated.

In assay [1] the test system is human breast cancer cell MDA-MB-468. In words: MTT proliferation assay, MDA-MB-468. To be noted: Homo sapiens, MDA-MB-468, 168 h, 7 days, single agent, read-out: IC50, inhibition of proliferation of MDA-MB-468. In kind it is cell-based. As to the method: Determination of the Inhibitory Effect of the Compound of Example 2 and its Analogues on the Proliferation of Human Breast Cancer Cell MDA-MB-468 Using MTT Assay
The human breast cancer cells MDA-MB-468 were cultured in RPMI 1640 medium with 10% FBS and used at 90% confluence. The MDA-IVB-468 cells were digested with trypsinase and centrifuged at 800 rpm for 5 minutes. The supernatant was discarded and the cell pellets were resuspended with fresh medium and counted. Cells were seeded to 96-well cell culture plates with appropriate cell density and incubated overnight at 37° C., 5% CO2. […] 5 μL of solutions of each concentration was added to 120 μL of medium (diluted by 25 times) and mixed by shaking. The culture medium of cells cultured overnight was discarded and replaced with 195 μL/well of fresh medium (RPMI 1640+5% FBS) and 5 μL/well of diluted medium containing the test compound of corresponding concentrations (the final concentration of DMSO was 1%), and the culture plate was then returned to 5% CO2 incubator at 37° C. for 7 days (on the fourth day, dressing was changed once and culture was continued). On the day of experiment, culture medium was discarded and replaced with 100 μL/well of fresh serum-free DMEM medium containing MTT (0.5 mg/mL), and the culture was continued. After 4 hours, medium was discarded and replaced with 100 μL/well of DMSO, the plates were shaken for 10 minutes in darkness and the absorbance was measured at the wavelengths of 552 and 693 nm using a multi-function plate reader. Graph Pad Prism 6.0 was used to analyze the data. The inhibitory effects of compounds on cell proliferation were plotted based on cell viability vs. the logarithm of compound concentration. Cell viability %=(ODcompound−ODbackground)/(ODDMSO−ODbackground)×100.
Table 4 summarizes the inhibitory effect data (IC50) of some compounds on the proliferation of human breast cancer cell MDA-MB-468.
In general terms: Tetrazolium assays rely on reduction of a dye to a coloured formazan, in cell work by metabolically active cells.

The subject of assay [2] is human colon cancer cell SW620. Nature of the assay: MTT proliferation assay in combination with CPT-11, SW620. To be noted: medium containing 205 nM CPT-11, 5 days, read-out: IC50, inhibition of proliferation of SW620 combined with CPT-11. The class given is cell-based. As to the method: Determination of the Inhibitory Effect of the Compound of Example 2 and its Analogues in Combination with CPT-11 on the Proliferation of Human Colon Cancer Cell SW620 Using MTT Assay
The human colon cancer cells SW620 were cultured in RPMI 1640 medium with 10% FBS and used at about 90% confluence for experiments. The SW620 cells were digested with trypsinase and centrifuged at 800 rpm for 5 minutes. The supernatant was discarded and the cell pellets were resuspended with fresh medium (RPMI 1640+10% FBS). The cells were seeded into 96-well cell culture plates with appropriate cell density and incubated at 37° C. overnight in a 5% CO2 incubator. […] The first concentration was 1 μM or 0.333 μM, the last concentration was DMSO negative control (0 μM). 5 μL of solutions of each concentration was added to 120 μL of medium (a 25 times dilution) and mixed by shaking. The cells were cultured overnight and the culture medium was replaced with 195 μL/well of fresh medium containing 205 nM CPT-11 and 5 μL/well of medium containing the test compound (the final concentration of DMSO was 1%). The culture plates were returned to incubator and cultured at 37° C., 5% CO2 for 5 days. At the day of experiment, medium was discarded and replaced with 100 μL of fresh serum-free DMEM medium containing MTT (0.5 mg/mL), and the culture was continued. 4 hours later, the medium was discarded and replaced with 100 μL/well of DMSO, the plate was shaken for 10 minutes in dark and the absorbance was measured at the wavelengths of 552 and 690 nm using a multi-function plate reader. Data were analyzed by Graph Pad Prism 6.0. The inhibitory effects of compounds on cell proliferation were plotted based on cell viability vs. the logarithm of compound concentration. Cell viability %=(ODcompound−ODbackground)/(ODDMSO−ODbackground)×100.
Table 3 summarizes the inhibitory effect data (IC50) of some compounds combined with CPT-11 on the proliferation of human colon cancer cell SW620.

Where two headings read alike, the source gives them in different places. A value given as a limit tells only on which side of the number the result lay.

T1 sequence (Q13315 whole entry): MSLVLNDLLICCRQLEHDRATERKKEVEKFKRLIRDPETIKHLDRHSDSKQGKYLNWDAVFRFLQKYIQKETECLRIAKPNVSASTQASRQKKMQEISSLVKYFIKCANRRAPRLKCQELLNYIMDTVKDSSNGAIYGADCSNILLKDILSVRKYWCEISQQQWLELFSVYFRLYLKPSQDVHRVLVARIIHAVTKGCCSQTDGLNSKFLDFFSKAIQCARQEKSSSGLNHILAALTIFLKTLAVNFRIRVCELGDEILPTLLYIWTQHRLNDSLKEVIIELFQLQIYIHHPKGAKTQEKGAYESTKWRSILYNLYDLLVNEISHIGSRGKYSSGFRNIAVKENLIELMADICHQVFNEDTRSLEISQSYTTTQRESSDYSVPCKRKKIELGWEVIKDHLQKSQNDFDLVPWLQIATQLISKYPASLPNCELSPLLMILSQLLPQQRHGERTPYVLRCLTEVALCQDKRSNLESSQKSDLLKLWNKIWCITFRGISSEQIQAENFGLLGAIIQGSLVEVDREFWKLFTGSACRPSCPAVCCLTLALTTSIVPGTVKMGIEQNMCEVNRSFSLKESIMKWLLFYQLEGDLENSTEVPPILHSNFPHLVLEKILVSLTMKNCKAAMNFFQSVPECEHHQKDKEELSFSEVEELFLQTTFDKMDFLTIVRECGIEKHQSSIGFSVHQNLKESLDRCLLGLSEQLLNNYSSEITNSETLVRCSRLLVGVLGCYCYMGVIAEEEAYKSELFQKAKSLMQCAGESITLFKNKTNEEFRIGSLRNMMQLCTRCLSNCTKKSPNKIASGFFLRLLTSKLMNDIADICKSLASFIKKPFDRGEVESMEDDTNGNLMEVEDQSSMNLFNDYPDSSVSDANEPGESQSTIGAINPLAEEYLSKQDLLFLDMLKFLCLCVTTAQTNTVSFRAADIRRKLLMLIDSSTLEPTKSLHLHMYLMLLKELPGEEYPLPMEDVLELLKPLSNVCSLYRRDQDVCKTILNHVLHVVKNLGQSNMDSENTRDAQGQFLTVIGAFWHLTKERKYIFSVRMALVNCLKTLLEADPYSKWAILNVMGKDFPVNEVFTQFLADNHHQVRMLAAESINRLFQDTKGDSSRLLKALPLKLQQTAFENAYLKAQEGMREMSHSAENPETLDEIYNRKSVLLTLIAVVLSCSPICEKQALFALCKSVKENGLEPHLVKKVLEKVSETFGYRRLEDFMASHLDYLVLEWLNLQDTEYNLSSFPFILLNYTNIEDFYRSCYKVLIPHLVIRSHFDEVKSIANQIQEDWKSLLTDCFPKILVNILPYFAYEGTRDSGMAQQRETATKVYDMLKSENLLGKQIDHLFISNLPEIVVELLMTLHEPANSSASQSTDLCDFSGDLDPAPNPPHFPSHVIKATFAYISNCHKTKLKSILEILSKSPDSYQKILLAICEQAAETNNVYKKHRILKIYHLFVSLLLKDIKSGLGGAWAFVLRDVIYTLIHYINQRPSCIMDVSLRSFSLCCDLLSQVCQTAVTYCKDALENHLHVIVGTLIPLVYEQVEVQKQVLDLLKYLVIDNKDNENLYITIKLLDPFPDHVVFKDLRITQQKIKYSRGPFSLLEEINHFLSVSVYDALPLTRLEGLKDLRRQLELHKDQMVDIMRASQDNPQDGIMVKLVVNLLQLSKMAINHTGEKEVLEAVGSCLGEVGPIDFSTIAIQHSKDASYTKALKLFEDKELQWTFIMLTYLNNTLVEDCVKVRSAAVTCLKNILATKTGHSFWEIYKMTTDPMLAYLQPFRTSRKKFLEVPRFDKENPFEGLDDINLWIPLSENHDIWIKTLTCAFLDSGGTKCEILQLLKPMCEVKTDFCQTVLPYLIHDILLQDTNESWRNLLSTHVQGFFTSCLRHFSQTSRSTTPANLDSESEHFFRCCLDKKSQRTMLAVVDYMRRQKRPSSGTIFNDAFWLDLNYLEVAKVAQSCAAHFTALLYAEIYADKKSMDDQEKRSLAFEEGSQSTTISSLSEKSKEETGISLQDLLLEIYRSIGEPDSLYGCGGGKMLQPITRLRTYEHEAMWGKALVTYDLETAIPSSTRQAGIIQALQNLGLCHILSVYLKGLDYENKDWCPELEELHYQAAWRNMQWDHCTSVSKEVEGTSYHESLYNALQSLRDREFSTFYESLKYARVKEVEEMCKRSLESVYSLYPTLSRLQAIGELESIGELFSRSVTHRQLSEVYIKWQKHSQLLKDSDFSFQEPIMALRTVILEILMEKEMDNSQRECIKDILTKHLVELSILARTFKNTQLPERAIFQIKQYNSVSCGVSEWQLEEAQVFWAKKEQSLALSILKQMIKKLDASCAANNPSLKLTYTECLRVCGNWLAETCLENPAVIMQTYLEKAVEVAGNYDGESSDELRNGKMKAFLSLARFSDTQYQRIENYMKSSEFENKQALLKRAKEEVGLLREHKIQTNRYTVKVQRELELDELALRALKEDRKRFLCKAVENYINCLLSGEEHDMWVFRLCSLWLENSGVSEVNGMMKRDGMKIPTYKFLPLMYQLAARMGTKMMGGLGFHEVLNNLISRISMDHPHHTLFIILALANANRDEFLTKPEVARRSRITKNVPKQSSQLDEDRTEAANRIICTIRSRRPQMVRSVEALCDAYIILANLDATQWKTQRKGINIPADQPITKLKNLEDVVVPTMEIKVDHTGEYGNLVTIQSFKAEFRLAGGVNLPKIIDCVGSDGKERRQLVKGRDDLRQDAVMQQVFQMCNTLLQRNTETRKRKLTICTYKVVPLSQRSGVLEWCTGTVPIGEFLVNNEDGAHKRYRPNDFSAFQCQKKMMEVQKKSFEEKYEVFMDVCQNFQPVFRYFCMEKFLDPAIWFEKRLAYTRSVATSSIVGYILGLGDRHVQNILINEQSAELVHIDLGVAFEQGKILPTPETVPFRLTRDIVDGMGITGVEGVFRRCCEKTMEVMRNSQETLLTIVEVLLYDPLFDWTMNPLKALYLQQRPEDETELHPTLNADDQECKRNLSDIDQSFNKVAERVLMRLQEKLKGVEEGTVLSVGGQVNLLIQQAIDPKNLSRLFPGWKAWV

With `Cc1nc(C2CCOCC2)n2c1cnc1ccc(-c3ccc(N4CCC(N(C)C)CC4)c(F)c3)cc12` [Example 6, N,N-dimethyl-1-(2-fluoro-4-(3-methyl-1-(tetrahydro-2H-pyran-4-yl)imidazo[1,5-a]quinoxalin-8-yl)phenyl)piperidin-4-amine], on ATM kinase, the inhibition at 0.0001 µM came to 33%, the inhibition at 0.001 µM worked out at 93% and the inhibition at 0.01 µM turned out to be 99%. Besides, the IC50 in assay [1] was 11.6 nM. Further, the IC50 in assay [2] was 12.6 nM.

For `Cc1nc(C2CCOCC2)n2c1cnc1ccc(-c3ccc(N4CCC(N(C)C)CC4)c(Cl)c3)cc12` [Example 7, N,N-dimethyl-1-(2-chloro-4-(3-methyl-1-(tetrahydro-2H-pyran-4-yl)imidazo[1,5-a]quinoxalin-8-yl)phenyl)piperidin-4-amine], on ATM kinase, the inhibition at 0.0001 µM worked out at 18%, the inhibition at 0.001 µM amounted to 86% and the inhibition at 0.01 µM was 96%. The IC50 in assay [1] was determined as 22.6 nM. In addition, the IC50 in assay [2] was found to be 25.9 nM.

For the compound `Cc1nc(C2CCOCC2)n2c1cnc1ccc(-c3ccc(N4CCC(N(C)C)CC4)c(C(F)(F)F)c3)cc12` [Example 8], on ATM kinase, the inhibition at 0.0001 µM was 27%, the inhibition at 0.001 µM turned out to be 94% and the inhibition at 0.01 µM was determined as 99%. For the same compound, the IC50 in assay [1] worked out at 24.8 nM. Besides, the IC50 in assay [2] was 24.1 nM.

Consider `Cc1nc(C2CCOCC2)n2c1cnc1ccc(-c3ccc(N4CCC(N)CC4)c(C(F)(F)F)c3)cc12` [Example 9, 1-(4-(3-methyl-1-(tetrahydro-2H-pyran-4-yl)imidazo[1,5-a]quinoxalin-8-yl)-2-(trifluoromethyl)phenyl)piperidin-4-amine], for which, on ATM kinase, the inhibition at 0.0001 µM came out at 28%, the inhibition at 0.001 µM worked out at 96% and the inhibition at 0.01 µM was found to be 99%. For the same compound, in assay [1], the IC50 was 23.1 nM. Moreover, the IC50 in assay [2] is 24 nM.

Turning to `CNC1CCN(c2ccc(-c3ccc4ncc5c(C)nc(C6CCOCC6)n5c4c3)cc2C(F)(F)F)CC1` [Example 10, N-methyl-1-(4-(3-methyl-1-(tetrahydro-2H-pyran-4-yl)imidazo[1,5-a]quinoxalin-8-yl)-2-(trifluoromethyl)phenyl)piperidin-4-amine], on ATM kinase, the inhibition at 0.0001 µM is 13%, the inhibition at 0.001 µM came to 74% and the inhibition at 0.01 µM stood at 99%. Further, the IC50 in assay [1] was 16.4 nM. Besides, the IC50 in assay [2] was found to be 16.7 nM.

For `CCNC1CCN(c2ccc(-c3ccc4ncc5c(C)nc(C6CCOCC6)n5c4c3)cc2C(F)(F)F)CC1` [Example 11, N-ethyl-1-(4-(3-methyl-1-(tetrahydro-2H-pyran-4-yl)imidazo[1,5-a]quinoxalin-8-yl)-2-(trifluoromethyl)phenyl)piperidin-4-amine], on ATM kinase, the inhibition at 0.0001 µM came to 11%, the inhibition at 0.001 µM was determined as 78% and the inhibition at 0.01 µM came to 97%. Moreover, the IC50 in assay [1] was 31.1 nM. For the same compound, in assay [2], the IC50 was 30 nM.

Regarding `Cc1nc(C2CCOCC2)n2c1cnc1ccc(-c3ccc(OCCCN4CCCCC4)nc3)cc12` [Example 12, 3-methyl-8-(6-(3-(piperidin-1yl)propoxy)pyridin-3yl)-1-(tetrahydro-2H-pyran-4-yl)imidazo[1,5-a]quinoxaline], on ATM kinase, the inhibition at 0.0001 µM was 40%, the inhibition at 0.001 µM was 91% and the inhibition at 0.01 µM is 98%. Also, the IC50 in assay [1] is 14.4 nM. Besides, the IC50 in assay [2] was 15.7 nM.

On to `Cc1nn(C)cc1-c1ccc2ncc3c(C)nc(C4CCOCC4)n3c2c1` [Example 13, 8-(1,3-dimethyl-1H-pyrazol-4-yl)-3-methyl-1-(tetrahydro-2H-pyran-4-yl)imidazo[1,5-a]quinoxaline], for which the inhibition at 0.01 µM on ATM kinase came to 15%. The IC50 in assay [1] is 782 nM; in assay [2] it was greater than 1000 nM.

Turning to `Cc1nc(N2CCOCC2)n2c1cnc1ccc(-c3ccc(OCCCN(C)C)nc3)cc12` [Example 14, N,N-dimethyl-3-((5-(3-methyl-1-morpholinylimidazo[1,5-a]quinoxalin-8-yl)pyridin-2-yl)oxy)propan-1-amine], at ATM kinase, the inhibition at 0.01 µM stood at 93%. Further, the results for the IC50 in assay [1] and in assay [2] were 26 nM and 39.7 nM, respectively.

As to `Cc1nc(N2C[C@@H](C)O[C@@H](C)C2)n2c1cnc1ccc(-c3ccc(OCCCN(C)C)nc3)cc12` [Example 15, N,N-dimethyl-3-((5-(1-((2S,6R)-2,6-dimethylmorpholino)-3-methylimidazo[1,5-a]quinoxalin-8-yl)pyridin-2-yl)oxy)propan-1-amine], the IC50 against ATM kinase amounted to 0.31 nM; in assay [1] it was 7.98 nM; in assay [2] (Homo sapiens, SW-620, 120 h), 9.3 nM.

For the compound `Cc1nc(N2CCCCC2)n2c1cnc1ccc(-c3ccc(OCCCN(C)C)nc3)cc12` [Example 16, N,N-dimethyl-3-((5-(3-methyl-1-(piperidin-1-yl)imidazo[1,5-a]quinoxalin-8-yl)pyridin-2-yl)oxy)propan-1-amine], on ATM kinase, the inhibition at 0.0001 µM was 71%, the inhibition at 0.001 µM came to 89% and the inhibition at 0.01 µM stood at 97%. In assay [1], the IC50 came to 10.6 nM. For the same compound, the IC50 in assay [2] amounted to 8.2 nM.

Take `Cc1nc(N2CCN(C)CC2)n2c1cnc1ccc(-c3ccc(OCCCN(C)C)nc3)cc12` [Example 17, N,N-dimethyl-3-((5-(3-methyl-1-(4-methylpiperazin-1-yl)imidazo[1,5-a]quinoxalin-8-yl)pyridin-2-yl)oxy)propan-1-amine]: on ATM kinase, the inhibition at 0.0001 µM is 9%, the inhibition at 0.001 µM came to 55% and the inhibition at 0.01 µM is 91%. Moreover, the IC50 in assay [1] was found to be 20.9 nM. Also, the IC50 in assay [2] stood at 27.4 nM.
